What was measured:
Format in all cases: cell-based, human
MDA-MB-231 [1] = assay: Cell death assay; settings: MDA-MB-231, IC50 concentration, 24 h, Annexin V/PI
MDA-MB-231 [2] = assay: Cell cycle profile; settings: MDA-MB-231, IC20 concentration, 24 h; non-treated cells 16%
MCF10a = assay: PrestoBlue cell viability assay, non-malignant breast cells MCF10a; settings: 24 h incubation
HCC-1806 [3] = assay: Cell invasion, 3D Transwell assay with Geltrex matrix, HCC-1806; settings: 24 h
HUVEC [4] = assay: Endothelial tube formation assay; settings: IC10 concentration
HCC-1806 [5] = assay: Cell death assay; settings: HCC-1806, IC50 concentration, 24 h, Annexin V/PI
HCC-1806 [6] = assay: Cell migration, 2D wound-healing scratch assay, HCC-1806; settings: 24 h
IMR90 = assay: PrestoBlue cell viability assay, lung fibroblasts IMR90; settings: IMR90, 24 h incubation
HUVEC [7] = assay: IC10 concentration in HUVEC cells
MDA-MB-468 = assay: PrestoBlue cell viability assay, MDA-MB-468; settings: MDA-MB-468, 24 h incubation
MDA-MB-231 [8] = assay: Cell invasion, 3D Transwell assay with Geltrex matrix, MDA-MB-231; settings: MDA-MB-231, IC20 concentration, 24 h
MDA-MB-231 [9] = assay: PrestoBlue cell viability assay, MDA-MB-231; settings: for IC50: MDA-MB-231, 24 h incubation, PrestoBlue
HCC-1806 [10] = assay: PrestoBlue cell viability assay, HCC-1806; settings: for IC50: HCC-1806, 24 h incubation, PrestoBlue

Cc1ccc(C(C)C)cc1.[Cl][Ru]([Cl])[PH]12CN3CN(CN(C3)C1)C2 [RAPTA-C, [Ru(η^6-p-cymene)Cl2(1,3,5-triaza-7-phosphaadamantane])]
cells that die by apoptosis (MDA-MB-231 [1]): 30.8%
cells in G2/M arrest (MDA-MB-231 [2]): 23%
IC50 (MCF10a): > 300 µM
invasion reduction (HCC-1806 [3]; HCC-1806, IC20 concentration): 41.2%
reduction of the antiinvasive properties in HCC-1806 with respect to MDA-MB-231 (HCC-1806 [3]; IC20 concentration): 25.7%
disruption in tube length (TL) (HUVEC [4]): 22%
disruption of tube length (first statement) (HUVEC [4]): 27%
apoptosis (HCC-1806 [5]): 27.25%
reduction of migration (HCC-1806 [6]; HCC-1806, IC20 concentration): 42.7%
decrease in antimigratory properties in HCC-1806 with respect to MDA-MB-231 (HCC-1806 [6]; IC20 concentration): ca. 17.6%
IC50 (IMR90): > 300 µM
IC10 concentration (HUVEC [7]): 150 µM
IC50 (MDA-MB-468): > 300 µM
invasion reduction (MDA-MB-231 [8]): 66.9%
IC50 (MDA-MB-231 [9]): > 300 µM
IC20 (MDA-MB-231 [9]; read-out: IC20 values employed, MDA-MB-231 (same value for both cell lines)): 250 µM
IC50 (HCC-1806 [10]): > 300 µM
IC20 (HCC-1806 [10]; read-out: IC20 values employed, HCC-1806 (same value for both cell lines)): 250 µM

N.N.[Cl][Pt][Cl] [cisplatin]
IC50 (MCF10a): 32.9 ± 6.68 µM
IC50 (IMR90): 149 ± 13.1 µM
IC50 (MDA-MB-468): 44.2 ± 2.1 µM
IC50 (MDA-MB-231 [9]): 132 ± 18 µM
IC50 (HCC-1806 [10]): 163 ± 5.86 µM

From publication PMC8571052 (ChemMedChem, 2021)
